# Measurements: US20030166631A1, “Pharmaceutical compositions and methods for administering EP2 receptor selective agonists” (priority 2001, published 2003)
# Legend:
# Male Sprague-Dawley rats = test: Rat periosteal injection model (local injection onto femur subperiosteum); type: in vivo; settings: for BMC: right femur, DEXA
# Procedure: Male Sprague-Dawley rats at 3 weeks of age were used. The rats were anesthetized with isoflurane inhalation (2-3 minutes) in a conduction chamber located in a fume hood. The right hindlimb of each rat was shaved and cleaned. A 26 G needle attached with a hamilton syringe pre-filled with testing solution was used for the local injection. The solution was injected onto the subperiosteum of the anterior, mid-diaphyseal region of the femur in a volume of 5 to 10 ul for various days. On day 15, the rats were sacrificed and the femurs were collected for analysis. Periosteal bone induction was assessed by using radiography, dual-energy X-ray absorptiometry (DEXA) and/or peripheral quantitative computed tomography (pQCT), and histomorphometry. (Michael E, Joyce, Anita B. Roberts, Michael B. Sporn, and Mark Bolander, “Transforming growth factor-β and the initiation of chondrogenesis and osteogenesis in the rat femur,” The Journal of Cell Biology 110:2195-2207 (1990)).
# The right femurs of male Spray-Dawley rats were injected with either vehicle or test compound for 1, 3, 7, and 14 days, respectively. The solution was prepared using 2% glycine as vehicle at pH of approximately 7.8-7.9. All rats were sacrificed on day 15 and the right femurs were collected for analysis. […] The test compound was (3-(((4-tert-butyl-benzyl)-(pyridine-3-sulfonyl)-amino)-methyl)-phenoxy)-acetic acid, sodium salt;
# The right femur of each rat was injected with test compound for 3, 7 and 14 days, respectively. The left femur of each rat was injected with vehicle to serve as its own control. The solution was prepared using 2% glycine as vehicle at pH of approximately 7.8-7.9. Drug concentration was 80 mg/ml. The injected volume was 5 μl/rat/d (0.4 mg/rat/d). All rats were sacrificed on day 15 and both right and left femurs were collected for analysis. […] The test compound was 7-{[2-(3,5-dichloro-phenoxy)-ethyl]-methanesulfonyl-amino}-heptanoic acid.
# beagle male dogs = test: Ulnar segmental defect model, enhancement of bone healing in dog; type: in vivo
# Procedure: It is clinically complex to heal segmental bone loss and non-union after fractures or reconstructive surgery. […] The following is a description of the ulnar segmental defect model used to evaluate bone healing in 11±1 kg beagle male dogs, 13 months old.
# Beagle dogs were treated with antiparasitics one week before surgery and were given two doses of Baypamun (Bayer), 72 and 24 hours before the operation. Dogs were divided into four groups of eight animals.
# Group A: 2 ml of phosphate buffered saline (PBS) was injected into the defect area filled with two helistat pre-cut sponges ([…]; 2.5×5 cm) 24, 48 and 72 hours following surgery.
# Group B: 100 mg preparation of test compound was injected into the defect area filled with two helistat pre-cut sponges ([…]; 2.5×5 cm) 24 hours following surgery and for three consecutive days (24, 48 and 72 hours).
# Group C: 100 mg preparation of test compound was injected into the defect area filled with two helistat pre-cut sponges ([…]; 2.5×5 cm) beginning 24 hours following surgery and daily thereafter for seven consecutive days.
# Group D: 100 mg preparation of test compound was injected into the defect area filled with two helistat pre-cut sponges ([…]; 2.5×5 cm) 24 hours following surgery and daily thereafter for 14 days.
# With animals under general anesthesia, the foreleg was prepped and draped in sterile fashion. A lateral incision approximately 10 cm in length was made and the ulna was exposed extraperiostally. Periosteum was cut and moved to the proximal and distal parts of the incision. Then 1.5 cm segmental defect was made in the midulna using a pendular saw. The radius and the remaining interosseal membrane were left intact. The defect site was irrigated with saline to remove bone debris. […] Both created bone ends were firmly stable and the radius served as a weight-bearing bone during the recovery process.
# The site was then filled with the two helistat sponges as described above. In particular two Helistat sponges sized 2.5 times 5 cm were rolled to form a cylinder which was secured outside with fibrin net and two resorbable sutures. In that way subsequent dermal injections had larger areas of absorption. The soft tissues were meticulously closed in layers to aid the sponges. Injections were administered via dermal suture markers in such a way that the needle reached the opposing radius and then pulled back for approximately 5 mm. The total volume per injection was 2 ml consisting either of vehicle (PBS) or test compound in PBS. Following surgery animals were allowed full weight-bearing activity, water and food ad libitum. Radiographs of the forelimbs were obtained immediately following surgery and every two weeks thereafter until the termination of the study. Radiographs were graded on a 0 to 6 scale (Table A).
# Dogs were sacrificed 12 weeks following surgery and the ulna was carefully dissected and fixed in 10% buffered formalin for histological analysis. As expected none of the control dogs re-bridged the defect confirming that the defect was a critical sized defect (Table B). Moreover, the non-union was pronounced permanent at the termination of the study since no significant progress in radiographs was observed between four and twelve weeks following surgery. In the 3-injections groups, none of the defects were re-bridged at the termination of the study. […] Radiographic scoring indicated a score between 2 and three for the dogs in this group.
# beagles = settings: 0.2 mg/kg in 10% ethanol into defect site twice a day for 10 days; cited from earlier work
# adult beagles = settings: 0.2 mg in 0.5 ml injected into fracture sites twice a day for 10 days; cited from earlier work
# dogs = settings: local infusion for 3 weeks, 500 to 2000 μg per week; cited from earlier work
# [1] = system: metaphysis of the left tibia; settings: daily intraosseous injections for 14 days; cited from earlier work
# [2] = 14-injections group, eight dogs
# [3] = Group D: 100 mg daily for 14 days, 12 weeks after surgery
smiles,measurement,setting,value
"CS(=O)(=O)N(CCCCCCC(=O)O)CCOc1cc(Cl)cc(Cl)c1 [7-{[2-(3,5-dichloro-phenoxy)-ethyl]-methanesulfonyl-amino}-heptanoic acid]",local bone formation by radiography,"Male Sprague-Dawley rats; 3-day treatment, eight femurs, 80 mg/ml, 5 μl/rat/d (0.4 mg/rat/d), left femur vehicle control",did not show evidence for increase bone formation locally
same,femurs showing increased calcified area by radiography,"Male Sprague-Dawley rats; 7-day treatment, 80 mg/ml, 5 μl/rat/d (0.4 mg/rat/d), left femur vehicle control",Two out of eight
same,femurs showing increased calcified area locally compared to controls by radiography,"Male Sprague-Dawley rats; 14-day treatment, 80 mg/ml, 5 μl/rat/d (0.4 mg/rat/d), left femur vehicle control",All femurs (n=8)
"CC(C)(C)c1ccc(CN(Cc2cccc(OCC(=O)[O-])c2)S(=O)(=O)c2cccnc2)cc1.[Na+] [CP, (3-(((4-tert-butyl-benzyl)-(pyridine-3-sulfonyl)-amino)-methyl)-phenoxy)-acetic acid, sodium salt]",defects re-bridged at termination of the study,beagle male dogs; 3-injections group,none
same,histological analysis of newly formed bone,beagle male dogs; 3-injections group,complete mineralization of the newly formed bone
same,new bone induction (osteoconduction and periosteal reaction),beagle male dogs; 3-injections group,observed in all the dogs
same,bone formation in the defect area,beagle male dogs; 7-injections group,Both endosteal and periosteal bone formation was observed
same,dogs showing full re-bridgement,beagle male dogs; 7-injections group,none
same,histological analysis of newly formed bone,beagle male dogs; 7-injections group,fully mineralized
same,dogs showing full re-bridgement by x-rays and histology,beagle male dogs; 14-injections group,two of the eight
same,dogs with large amount of new bone formation in defect area but defect not completely filled,beagle male dogs; [2],Three other dogs
same,"dogs with relatively less bone formation, pronounced non-responders",beagle male dogs; [2],Three dogs
same,Bridging/8 dogs,"beagle male dogs; Group B: 100 mg, 3 injections, 12 weeks after surgery",0/8
same,Bridging/8 dogs (medial healing),"beagle male dogs; Group C: 100 mg daily for 7 days, 12 weeks after surgery",1/8 showed medial healing
same,Radiographic Grading/8 dogs,"beagle male dogs; Group D: 100 mg daily for 14 days, 0 to 6 scale",4-6
same,Bridging/8 dogs (good bridging),beagle male dogs; [3],4/8
same,dogs showing almost complete healing,beagle male dogs; [3],Three
same,BMC,"Male Sprague-Dawley rats; 1 day of dosing, sacrifice day 15",0.0469 ± 0.0030 g
same,BMC,"Male Sprague-Dawley rats; 3 days of dosing, sacrifice day 15",0.0446 ± 0.0064 g
same,BMC,"Male Sprague-Dawley rats; 7 days of dosing, sacrifice day 15",0.0485 ± 0.0054 g
same,BMC,"Male Sprague-Dawley rats; 14 days of dosing, sacrifice day 15",0.0533 ± 0.0044 g
same,"excess calcified mass on anterior aspect of right femur, radiography","Male Sprague-Dawley rats; 14 days of treatment, sacrifice day 15",became significant
same,"excess calcified mass on anterior aspect of right femur, radiography","Male Sprague-Dawley rats; injected for 7 days, sacrifice day 15",started to show excess calcified mass
same,periosteal bone formation,"Male Sprague-Dawley rats; one- or three-day treatment, sacrifice day 15",did not result in periosteal bone formation
same,defined region bone area and bone mineral content (BMC) by DEXA compared to vehicle,Male Sprague-Dawley rats; vs vehicle-treated rats (Table I),significantly increased
"CCCCC[C@H](O)/C=C/[C@H]1[C@H](O)CC(=O)[C@@H]1CCCCCCC(=O)O [PGE1, prostaglandin E1]",periosteal and cortical endosteal bone formation,beagles,more periosteal and cortical endosteal bone formation
same,bone matrix formation at fracture site,adult beagles,induced bone matrix formation on the periosteal envelope
same,alveolar bone formation in the mandible,dogs,"produced a dramatic, localized formation of alveolar bone"
"CCCCC[C@H](O)/C=C/[C@H]1[C@H](O)CC(=O)[C@@H]1C/C=C\CCCC(=O)O [PGE2, Prostaglandin E2]",trabecular bone in the metaphysis,[1],significant increase of trabecular bone
